{"source": "patent US9072901B2", "about": "“Cardiac neuromodulation and methods of using same” (The Board of Regents of the University of Oklahoma, priority 2001, dated 2015)", "key": {"[1]": {"tested_on": "canine intrinsic cardiac neurons", "experiment": "Intracellular recording of canine intrinsic cardiac neurons in vitro, ACh pulse with or without hexamethonium", "format": "cell-based", "details": "hexamethonium 100 μM for 5 min in perfusate", "procedure": "The horizontal bar under the traces indicates application of a 10 ms pulse of ACh (1 mM) from the tip of a pipette placed near the ganglion. A, CONTROL. […] DCX. […] During the repolarization phase, the membrane potential began to oscillate with APs being discharged on oscillatory peaks. […] DCX. […] The bursting of activity is reflective of the enhanced muscarinic receptor-mediated responses of these neurons.\nIntrinsic cardiac neurons remain responsive to cholinergic synaptic inputs. The cholinergic receptor systems are differentially affected by disruption of nerve inputs to the ICN, with muscarinic responsiveness being enhanced (FIG. 9). Non-cholinergic neurotransmitters can modulate the activity of these neurons. FIG. 10 illustrates the interaction between acetylcholine and the peptide, substance P."}, "[2]": {"tested_on": "right atrial ganglionated plexus neurons", "experiment": "Activity of right atrial ganglionated plexus neuron populations during epicardial chemical stimuli", "format": "in vivo", "details": "ventricular sensory inputs", "description": "Arrow indicates application of veratridine to the epicardium of the left ventricle. At baseline, note the cycling of activity with a periodicity of 20 seconds. In the unstressed condition, this bursting is usually associated with increased coordination of activity between the two populations of neurons (see bottom trace).\nSub-populations of right atrial neurons that receive afferent inputs from sensory neurites in both ventricles are responsive to local mechanical stimuli and the nitric oxide donor nitroprusside. Neurons in at least one ganglionated plexus locus were activated by epicardial application of veratridine, bradykinin, the β1-adrenoceptor agonist prenaterol or the excitatory amino acid glutamate. […] These periods of coupled activity occurred every 30-50 second during basal states, as well as when neuronal activity was enhanced by chemical activation of their ventricular sensory inputs. It has been observed that neurons throughout one intrinsic cardiac ganglionated plexus receive inputs from mechano- and chemo-sensory neurites located in both ventricles. That such neurons respond to multiple chemical stimuli, including those liberated from adjacent adrenergic efferent nerve terminals, indicates the complexity of the integrative processing of information that occurs within the intrinsic cardiac nervous system.\nIntraganglionic interactions within the intrinsic cardiac nervous system depend in large part on common shared afferent inputs and/or interconnections mediated via local circuit neurons. In order to evaluate these interactions, separate populations of neurons were recorded in the ventral right atrial ganglionated plexus (RAGP) in basal states and during discrete mechanical and chemical stimuli of ventricular neurites. In basal states, the coherence of activity generated by the two populations of RAGP neurons fluctuated with a periodicity of 30-50 s and with an average peak coherence of 0.88±0.03. Coherence was increased in conjunction with the enhanced neuronal activity evoked during exposure of ventricular sensory inputs to mechanical and chemical (nitroprusside, veratridine, bradykinin, adrenergic agonists or glutamate) stimuli."}, "[3]": {"tested_on": "canine nodose ganglion afferent neuron", "experiment": "Nodose ganglion afferent neuron activity after epicardial CPA", "format": "in vivo", "details": "CPA via 1 cm×1 cm pledget on ventral left ventricular epicardium", "procedure": "Panel B was obtained 1 minute after terminating CPA application."}, "[4]": {"tested_on": "right atrial ganglionated plexus", "experiment": "ISF, aorta and coronary sinus catecholamines (microdialysis) during ANG II infusion into blood supply of the RAGP", "format": "in vivo, dog", "procedure": "FIGS. 8A-8C show ISF, aorta and coronary sinus norepinephrine (NE) and epinephrine (EPI) levels in response to stellate stimulation (4 Hz), angiotensin II (ANG II) infusion (100 μM, 1 ml/min) into the blood supply for the Right Atrial Ganglionated Plexus (RAGP) and Dorsal Cord Activation (DCA, 50 Hz, 200 μsec, 90% motor threshold). ISF fluids were sampled using the microdialysis techniques summarized in Aim 3.\nLV dP/dt correlated with ISF NE release. However, NE spillover into the coronary sinus occurred only during sympathetic efferent neuronal stimulation (FIG. 8C). […] This differential release of catecholamines from cardiac nerves occurred in spite of a 40-fold higher NE compared to EPI content in the dog LV myocardium (237±33 vs. 6.4±1.0 ng/g). […] Dorsal cord activation (FIG. 8B) evoked a release of EPI into the ISF equivalent to stellate stimulation, but with only a modest increase in ISF NE."}, "[5]": {"tested_on": "right atrial neurons", "experiment": "Ventricular unipolar electrograms (ST segment) with ANG II administered to right atrial neurons, ameroid constrictor chronic ischemia", "format": "in vivo", "details": "ANG II 40 μg/min", "procedure": "Under basal conditions, electrograms display slight ST segment displacement (panel B). Transient rapid ventricular pacing (240/min for 1 min), used to increase myocardial O2 demand, precipitates ischemic episodes. In the first beats following rapid pacing, ST segment displacement is inhomogeneously augmented in the LCx territory. Marked ST segment depression (−2 to −6 mV) occurs in some areas, whereas ST elevation (+2 to +15 mV) develops in others (panel C). […] Note that the ST changes, induced by ANG II, occurred at the apical margin of the plaque electrode, i.e., at the periphery of the LCx territory (Panel D). In contrast, the changes induced by transient rapid pacing occurred at a more central location in the LCx territory (panel C).\nNote that the ST changes occurred at the apical margin of the plaque electrode (panel B). Thus, the ST segment changes are caused by direct or indirect activation of ganglionated plexus neurons that project efferent axons to the specific ventricular areas in which the changes occurred. […]\nDorsal column activation stabilizes ischemic myocardial electrical dysfunction. […] Four weeks later, under general anesthesia multiple ventricular unipolar electrograms were recorded in the normal and ischemic left ventricle during basal states and when ANG II (40 μg/min; 1 minute) was administered to right atrial neurons before and after DCA. […]"}, "[6]": {"tested_on": "T3 neurons", "experiment": "T3 neuron activity with intrapericardial bradykinin and glutamate pledget on C1-C2 segments", "format": "in vivo, rats", "description": "FIGS. 19A-19F show responses of T3 cell to chemical stimulation of glutamate before and after rostral C1 spinal transection. The responses were evoked by intrapericardial injections of bradykinin (BK). Saline was used as the control. Pledgets of glutamate placed on the C1-C2 dorsal spinal cord (B) decreased the discharge rate of the cell for the three minute period it was applied. The background activity recovered after glutamate was removed. […] The presence of glutamate attenuated this response (E). The increased rate of discharge to BK injections was again observed when glutamate was removed (F). In each panel, action potentials were recorded on a rate histogram.\nOriginally, it was assumed that supraspinal pathways are necessary for descending inhibitory effects of visceral afferents on sensory neurons. […] Thus, it appears that the upper cervical segments play an important role in the hierarchy that controls the efferent outflow to the intrathoracic and intrinsic cardiac nervous system. […]\nDescending modulation of thoracic cardiac nociceptive transmission by upper cervical spinal neurons. […] Methods: Extracellular potentials of single T3 neurons were recorded in pentobarbital anesthetized male rats. […]"}, "[7]": {"tested_on": "intrinsic cardiac neurons", "experiment": "Activity generated by right atrial (intrinsic cardiac) neurons recorded in situ in anesthetized dogs", "format": "in vivo, dog", "details": "for enhancement of intrinsic cardiac neuronal activity: epicardial veratridine 7.5 μM"}, "[8]": {"tested_on": "intrinsic cardiac neurons", "details": "direct application; cited from earlier work"}, "[9]": {"tested_on": "intracardiac neuron", "experiment": "Inhibition of ACh-evoked responses by substance P, intracellular recording", "format": "cell-based", "details": "bath application of 10 μM substance P; 28 ms puffs of ACh 10 mM", "procedure": "Local application of ACh evoked action potentials. These ACh evoked potentials were blocked during bath application of 10 μM substance P (see horizontal bar)."}}, "note": "No end group written: not given here.", "data": [{"compound": "C[N+](C)(C)CCCCCC[N+](C)(C)C", "note": "[Hexamethonium]", "values": [{"measurement": "ACh-induced depolarization", "setting": "[1]; CONTROL neuron", "value": "reduced the amplitude of ACh-induced depolarization relative to the control state; no APs were generated"}, {"measurement": "ACh-induced depolarization", "setting": "[1]; DCX neuron", "value": "reduced the amplitude of ACh-induced depolarization; AP discharge was facilitated"}]}, {"compound": "nitroprusside", "values": [{"measurement": "neuronal response to epicardial application", "setting": "[2]", "value": "responsive"}]}, {"compound": "CC(C)NC[C@H](O)COc1ccc(O)cc1", "note": "[prenaterol]", "values": [{"measurement": "neuronal response to epicardial application", "setting": "[2]", "value": "activated"}]}, {"compound": "CC(C)(C)NCC(O)c1cc(O)cc(O)c1", "note": "(centres unmarked) [terbutaline]", "values": [{"measurement": "neuronal response to epicardial application", "setting": "[2]", "value": "inconsistent neuronal responses"}]}, {"compound": "OC[C@H]1O[C@@H](n2cnc3c(NC4CCCC4)ncnc32)[C@H](O)[C@@H]1O", "note": "[CPA]", "values": [{"measurement": "activity generated by nodose ganglion afferent neuron", "setting": "[3]", "value": "enhancement of the activity"}]}, {"compound": "angiotensin II (DRVYIHPF; Angiotensin-2; UniProt P01019 25-32, looked up) [ANG II]", "values": [{"measurement": "neuronal response to epicardial application", "setting": "[2]", "value": "inconsistent neuronal responses"}, {"measurement": "NE concentration in the cardiac interstitial fluid (ISF)", "setting": "[4]; ANG II 100 μM, 1 ml/min into RAGP blood supply, anesthetized dog", "value": "to the same extent as achieved during electrical stimulation of the stellate ganglia"}, {"measurement": "EPI spillover into the coronary sinus", "setting": "[4]; ANG II stimulation", "value": "Neither stellate nor ANG II stimulation evoked EPI spillover"}, {"measurement": "regional ST segment changes", "setting": "[5]; ischemic ventricle, 1 minute", "value": "increased the area and magnitude"}, {"measurement": "electrical behavior", "setting": "[5]; normal myocardium", "value": "minimal changes"}]}, {"compound": "N[C@@H](CCC(=O)O)C(=O)O", "note": "[glutamate]", "values": [{"measurement": "neuronal response to epicardial application", "setting": "[2]", "value": "activated"}, {"measurement": "spontaneous activity of T3 neurons and excitatory inputs from cardiac sensory neurons", "setting": "[6]; after transection at the rostral C1 spinal cord", "value": "still reduced"}, {"measurement": "T3 neurons in which spontaneous activity and/or excitatory responses to intrapericardial bradykinin were inhibited", "setting": "[6]; glutamate pledget 1 M, 1-3 min, on C1-C2", "value": 77, "unit": "%"}]}, {"compound": "OC[C@@H](O)[C@H]1O[C@@H]2O[C@H](C(Cl)(Cl)Cl)O[C@@H]2[C@H]1O", "note": "[alpha chloralose]", "values": [{"measurement": "effect of each bolus on neuronal activity", "setting": "[7]; dog, in vivo, iv", "value": "suppressed neuronal activity for a few minutes"}]}, {"compound": "NC[C@H](O)c1ccc(O)c(O)c1", "note": "[norepinephrine]", "values": [{"measurement": "identified intrinsic cardiac neurons whose properties are modified", "setting": "[8]", "value": "about 25%"}]}, {"compound": "substance P (RPKPQQFFGLM-NH2; ends and bridges not checked; UniProt P20366 58-68, looked up)", "values": [{"measurement": "ACh evoked potentials", "setting": "[9]", "value": "blocked"}]}, {"compound": "COc1ccc(C(=O)O[C@H]2CC[C@@]3(C)[C@@H]4CC[C@H]5[C@]6(O)C[C@H](O)[C@@]7(O)[C@@H](CN8C[C@@H](C)CC[C@H]8[C@@]7(C)O)[C@]6(O)C[C@@]53O[C@]24O)cc1OC", "note": "[veratridine]", "values": [{"measurement": "intrinsic cardiac neuronal activity with veratridine", "setting": "[7]; after application of SCS, four animals, from 11.8±2.5", "value": "16.5±4.6", "unit": "impulses/min"}, {"measurement": "intrinsic cardiac neuronal activity with veratridine", "setting": "[7]; after completing the protocols, all 10 dogs, from 25.6±5.7", "value": "40.6±12.5", "unit": "impulses/min"}, {"measurement": "intrinsic cardiac neuronal activity with veratridine", "setting": "[7]; before application of SCS, four animals", "value": "40.5±26.7"}, {"measurement": "enhancement of intrinsic cardiac neuronal activity", "setting": "[7]; after application of SCS, four animals, no significant difference", "value": 39, "unit": "%"}, {"measurement": "enhancement of intrinsic cardiac neuronal activity", "setting": "[7]; before application of SCS, four animals, P<0.05", "value": 124, "unit": "%"}, {"measurement": "increase of intrinsic cardiac neuronal activity", "setting": "[7]; epicardial veratridine, after completing the protocols (following SCS and regional ventricular ischaemia), all 10 dogs, P<0.05", "value": 58, "unit": "%"}]}]}
